The results in this text go back to a melting point compilation (Tetko et al.; mined from patent text by program, amines drawn as free bases though some values may be those of a salt).

Bounds are passed on as bounds.

For orientation: melting point means the temperature of the solid-liquid transition. Compound `COC(=O)[C@H](Cc1ccc(N)cc1)NC(C)=O` had a melting point of 141 °C.
To `CCc1cc(NC(=O)N2CCN(c3cc(OC)cc(OC)c3)CC2)c(N2CCNCC2)nc1C` belongs 68 to 70 °C.
`Cn1ncc(C(=O)c2ccc(Cl)cc2Cl)c1Cl` yielded a melting point of 81 to 83 °C.
Turning to `CCOC(=O)c1ccc(N2CCC(NCC(O)COc3cccc([N+](=O)[O-])c3N)CC2)nc1` (stereo not given), the melting point fell in the range of 140 to 142 °C.
To `O=C(NCCO[N+](=O)[O-])Oc1ccccc1` belongs 61 to 62 °C; to `Cc1ccc(C(=C2CN(C(c3ccccc3)c3ccccc3)C2)S(C)(=O)=O)cc1`, 210 °C.
As for `Cn1cncc1C(O)(c1ccc(C=NO)cc1)c1ccc2[nH]c(=O)cc(-c3cccc(Cl)c3)c2c1` (stereo not given), the melting point came out at 230 °C.
Next, `COc1ccc2c(c1C=O)Nc1ccccc1S2`: 155 to 160 °C; `CCC1(CC)OC(=O)N(c2cccc(Cl)c2)c2ccccc21`: 150 to 151 °C.
On to `CN1CCCCC1=C1C(=O)N(c2cccc(Cl)c2)c2ccccc21`, for which the melting point was in the range of 162 to 165 °C.
`O=[N+]([O-])c1cccnc1NCC(O)c1ccccc1` (stereo not given) showed a melting point of 101 to 103 °C.
Take `O=[N+]([O-])c1ccc(C=Cc2ccc(Cl)c(Cl)c2)cc1O`: the melting point fell in the range of 105 to 106 °C.
`Cc1cccc(-n2nc(C)cc2-c2ccnc(N(C)C)c2)c1` returned a melting point of 84 to 85 °C.
In the case of `CCc1cc(C(=O)c2ccccc2Cl)c(-n2nnnc2CNC(=O)c2cc3ccccc3[nH]2)s1`, the melting point was in the range of 146 to 149 °C.
As for `N#Cc1c(N2CCN(C(=O)c3cnccn3)CC2)c2ccccc2n(Cc2ccc(F)cc2)c1=O`, the melting point was 145 to 156 °C.
Compound `COCC(=O)Nc1nc2ccc(F)cc2s1` yielded a melting point of 139 to 140 °C.
`O=C(O)c1cc(Br)c(Cl)s1` registered a melting point greater than 200 °C.
With `CS(=O)(=O)NCCCn1c(-c2ccc(Br)cc2)csc1=Nc1ccccc1`, the melting point lay within 128 to 134 °C.
In turn, `CC(C)(CO)NS(=O)(=O)c1cccc(NC(=O)c2cnn3c(C(F)F)cc(-c4ccc(Cl)cc4)nc23)c1` returned a melting point of 229 °C.
Compound `Cc1ccc(S(=O)(=O)C(=[N+]=[N-])C(=O)C(C)(C)C)cc1` registered a melting point of 120 to 122 °C.
Consider `Cc1nc(CC2CCN(c3ccc(F)cc3)CC2)nc(C(=O)NCC(=O)O)c1O`, for which the melting point was 104 to 105 °C.
To `CC(C)[C@H](C[C@H](N=[N+]=[N-])[C@@H]1C[C@@H](C(C)C)C(=O)O1)C(=O)O` belongs 56 to 58 °C; to `CCOC(=O)C1CCc2c(sc3ccc(C)cc23)C1` (stereo not given), 68 to 69 °C; to `O=C(NNc1ccc(C=CC(c2cc(Cl)c(Cl)c(Cl)c2)C(F)(F)F)cc1)C1CC1` (stereo not given), 138 to 140 °C.
Next, `Cc1ccc(-c2nnc3cc(-c4ccccc4)c(OCc4ncn(C)n4)nn23)s1`: 209 to 210 °C.
Compound `CC1=C(C(=O)OC(C)(C)C)C(c2cccc(Cl)c2)C(C(=O)OC(C)(C)C)=C(C)N1` had a melting point of 190 °C.
For the compound `O=C1c2ccccc2C(=O)N1CCN1CCN(C(c2ccccc2)c2ccccn2)CC1` (stereo not given), the melting point lay in the range of 114 to 117 °C.
Next, `O=[N+]([O-])c1ccc(Sc2cccc3cnccc23)nc1`: 115 to 117 °C.
On to `CCCCC(CC)(CO)C(=O)O` (stereo not given), for which the melting point is 45 to 46 °C.
In the case of `CCNC(=O)n1nc(Oc2c(F)cc(C(F)(F)F)cc2F)cc1C`, the melting point is 102 to 104 °C.
As for `C[C@H]1CCCC(C)(C)[C@@H]1[C@H](O)c1cccc(C#N)c1`, the melting point lay within 105 to 107 °C.
To `O=C(NN1CCN(Cc2c[nH]c3ccccc23)CC1)c1ccccc1` belongs 176 to 178 °C; to `COC(=O)c1cccc(Oc2ncccc2C(=O)NCc2ccccc2)c1`, 119 to 120 °C.
`COc1ccc(CCOc2ccc(C(=O)N/C(=C\c3ccc(SC)cc3)C(=O)NCCO)cc2)cc1`: the melting point lay within 61 to 63 °C.
Turning to `COc1ccc(NC(=O)c2ccc(F)c(F)c2)cc1NCc1cccs1`, the melting point lay within 187 to 189 °C.
On to `OCc1ccc2c(Cl)cccc2c1`, for which the melting point was in the range of 72 to 75 °C.
As to `Cc1ccc(OC2CCN(C(=O)C(=O)O)CC2)cc1`, the melting point lay in the range of 109 to 112 °C.
Consider `CC(C)C(C)Nc1c(NCc2ccc(C#N)cc2)c(=O)c1=O` (stereo not given), for which the melting point fell in the range of 257 to 260 °C.
Compound `CNC(=O)c1c(NC)ncn1Cc1ccccc1` yielded a melting point of 113 to 114 °C.
Consider `CCCc1ccc(-c2ccc3c(c2)C=C(C(=O)OC)CCS3(=O)=O)cc1`, for which the melting point was in the range of 155 to 156 °C.
Compound `O=C1CC2(CCCC2)CC(=O)N1CCCCN1CCN(c2nsc3ccccc23)CC1` displayed a melting point of 128 to 130 °C.
With `CC(C)Oc1cc(-n2c(=O)c(F)c(CF)n(C)c2=O)c(F)cc1Cl`, the melting point lay within 79 to 81 °C.
Regarding `OCc1cnn2ccc3c(c12)CCO3`, the melting point was 152 to 154 °C.
As to `Cn1cc(C(O)c2cccc(Cl)c2)cc1C(=O)O` (stereo not given), the melting point stood at 180 °C.
`CCCN(CC)C(=O)c1ccc(CN2C(=O)C(c3ccccc3Cl)(N(C)C)c3cc(Cl)ccc32)cc1` (stereo not given) displayed a melting point of 208 °C.
`CCOC(=O)c1nc2c(=O)[nH]c3cc(C(F)(F)F)ccc3n2c1Cn1ccnc1C`: the melting point is greater than 250 °C.
Take `O=[N+]([O-])c1ccccc1NN=Cc1ncc(C(F)(F)F)cc1Cl`: the melting point lay within 127 to 135 °C.
On to `CCCCCCCCCCN(O)C(=O)N(C)C`, for which the melting point was in the range of 44 to 45 °C.
Compound `CCOCc1nc2c(N)nc3ccccc3c2n1CC(C)(C)N` came in with a melting point of 161 to 162 °C.
Next, `CCN=C1NC(=O)C(OC)(c2nsc3ccc(-n4c(=O)cc(C(F)(F)F)n(C)c4=O)cc23)N1` (stereo not given): 205 °C; `O=C(NC1=CCN(CCc2ccccc2)CC1)c1ccccc1`: 115 to 117 °C.
Next, `CC(C)(COC(=O)COc1ccc(C(=O)CN2Cc3cc(C#N)ccc3C2=O)cc1)NS(=O)(=O)c1cccnc1`: 190 to 192 °C; `CNc1nc(C)c(C)cc1NC(=O)N1CCN(c2cc(OC)cc(OC)c2)CC1`: 150 to 151 °C; `CCCCC#CCCOc1ccc(/C=C/C(=O)Nc2ccccc2C(=O)O)cc1OC`: 169 to 170 °C.
Turning to `CNC(=C[N+](=O)[O-])NCCCCCCCCCCCCN`, the melting point fell in the range of 123 to 125 °C.
The compound `CC1(C)CN2C(=O)c3nc[nH]c3N(Cc3ccc(Cl)cc3)C2=N1` showed a melting point of 222 to 223 °C.
Compound `O=C1Nc2ccccc2N(C(=O)CCCCl)c2ccccc21` yielded a melting point of 151 to 152 °C.
Regarding `Cc1[nH]c(C=NNC(=O)c2ccc(O)cc2)c(C)c1Br`, the melting point amounted to 235 °C.
Next, `FC(F)(F)c1ccc(N=c2ccc3nc4ccccc4sc-3c2)cc1`: 207 to 208 °C.
To `C#CCN(CC#C)c1ccc(Cl)c(Cl)c1` belongs 48 to 50 °C.
`O=C(c1ccccc1)c1cc(Cl)cc2c1S(=O)CC2C(=O)O` (stereo not given) returned a melting point of 172 to 174 °C.
In the case of `Cc1ccc(S(=O)(=O)OCCCn2c(=NC(=O)C(F)(F)F)sc3cc(OC(F)(F)F)ccc32)cc1`, the melting point came to 139 °C.
Next, `CCOC(=O)C1=C(C=O)NC(CF)=C(C(=O)OCC)C1c1cccc([N+](=O)[O-])c1` (stereo not given): 88 to 90 °C.
For `NC(=O)c1nc(-c2cccnc2Cl)nc2c1[nH]c(=O)n2-c1ccccc1`, the melting point lay in the range of 283 to 286 °C.
For the compound `O=C(Nc1ccccc1)c1ccc(F)c([N+](=O)[O-])c1`, the melting point fell in the range of 155 to 157 °C.
For the compound `CC(C)(C)CC(=O)Nc1ccc2ncn3c(=O)c(C(=O)O)cnc3c2c1`, the melting point lay within 304 to 306 °C.
Compound `O=C(O)CCCCOc1cccc2occc12` gave a melting point of 108 °C.
In turn, `CCCCC(CC)COC(=O)CC(C(=O)OCC(CC)CCCC)S(=O)(=O)O` (stereo not given) gave a melting point of 70 °C.
Regarding `O=C(O)C=CC(=O)c1ccccc1O`, the melting point was 172 to 173 °C.
For the compound `CCCc1cc(=O)oc2c(C(C)=O)c(O)cc(O)c12`, the melting point was in the range of 221 to 224 °C.
Next, `CC(=O)SCCN1C(=O)c2ccccc2C1=O`: 112 to 114 °C.
`CCCCCCN(C)c1ccc(C=C2SC(=S)N(Cc3nnn[nH]3)C2=O)cc1` came in with a melting point of 198 to 200 °C.
For the compound `CC(Cc1cccc(N)c1)(NC=O)c1ccccc1` (stereo not given), the melting point lay within 114 to 115 °C.
To `N#CCc1nn(-c2ccccn2)c(N)c1C#N` belongs 178 to 179 °C; to `CCOC(=O)C1C(=O)Cc2ccccc21` (stereo not given), 58 to 61 °C; to `CN(C(=O)COc1nc2cccc(F)c2s1)c1ccccc1`, 116 °C.
For `CN1CCC23c4c5ccc(O)c4OC2C(OC2OC(C(=O)O)C(O)C(O)C2O)C=CC3C1C5` (stereo not given), the melting point was 240 to 243 °C.
In the case of `O=C(O)Cc1ccc2nc(Nc3ccccc3)oc2c1`, the melting point lay in the range of 222 to 223 °C.
`O=C(Nc1ccc(OC(F)(F)F)cc1)NC1CCN(C(=O)CN2CCN(Cc3ccccc3)CC2)CC1` came in with a melting point of 178 to 183 °C.
For `CC1(C)C=C(c2cccnc2)c2cc(Br)ccc2OC1`, the melting point was 116 °C.
To `OCCCNc1cc(-n2cccn2)nc(-c2cccs2)n1` belongs 130 to 131 °C.
Take `CCOC(=O)C1=Cc2cc(Cl)c(F)cc2OC1C(F)(F)F` (stereo not given): the melting point lay within 97.6 to 98.6 °C.
To `O=[N+]([O-])c1cc(F)ccc1N1CCc2ccccc21` belongs 87 to 89 °C; to `O=C1C=C(c2cccc(C(F)(F)F)c2)CO1`, 124 to 125 °C.
As to `CN1CCC(=C2c3ccc(Cl)cc3C(=NO)Cc3cccnc32)CC1`, the melting point fell in the range of 172 to 175 °C.
For `Cc1ccsc1-c1[nH]nc2c1C(=O)c1c(NC(N)=O)cccc1-2`, the melting point came to 270 °C.
As to `CCCCCCCCCCSc1ccc2c3c(cccc13)C(=O)N(CC(=O)O)C2=O`, the melting point lay within 137 to 140 °C.
With `CCCc1c(OCCCCCOc2ccc(C(=O)c3ccc(C(=O)O)cc3)cc2CCC(=O)O)ccc2c1OCCC2=O`, the melting point lay within 175 to 177 °C.
Next, `Nc1ccc2c(c1)CN(CCC1CCCCN1S(=O)(=O)c1cccc3ccccc13)CC2` (stereo not given): 212 to 218 °C; `CCOC(=O)C1=C(C)NC(C=O)=C(C(=O)OCC)C1c1cccc([N+](=O)[O-])c1` (stereo not given): 130 to 133 °C.
